# Entries after “also recorded” stand apart in the source; their conditions may differ. Like-named read-outs stand apart in the source and are kept apart here.
# Experiments:
# NTPDase [1] = experiment: NTPDase assay on intact human peripheral blood lymphocytes (PBL); type: biochemical
# Protocol: Human lymphocytes were obtained from peripheral venous blood of normal and healthy medication-free volunteers. Fresh blood collected in EDTA glass tubes was layered into Histopaque™-1077 (a solution of Ficoll™ and sodium diatrizoate adjusted to a density of 1.077, Sigma, USA) and centrifuged at 400 g for exactly 30 min, at room temperature. During centrifugation, erythrocytes and granulocytes were aggregated by Ficoll™ and rapidly sedimented, whereas lymphocytes remained at the plasma interface. Plasma (the upper layer) was carefully removed to prevent disturbance of the buffy coat. The latter fraction rich in lymphocytes was recovered with a pasteur pipette and washed twice with RPMI™ 1640 medium by centrifugation, for 10 min, at 250×g. The final pellet was suspended in fresh RPMI™ 1640 medium supplemented with 2 mM L-glutamine, 10% foetal bovine serum inactivated at 56° C. for 30 min, and antibiotics: penicillin […], streptomucin 100 ug/ml and amphotericin 2.5 ug/ml. Cells were counted with the hemacytometer. […] The cell preparation named PBL (for peripheral blood lymphocyte) was immediately used for NTPDase assays and for mitogenic responses to stimulators.
# Prior to the assays, human normal lymphocytes as well as leukemic cell lines, were washed three times with phosphate-free saline in 95 mM NaCl, 1 mM CaCl2, 2 mM MgCl2 and 45 mM Tris —HCl buffer (pH 7.4). Enzyme assays were carried out at 37° C. in 1 ml of the following assay medium: 95 mM NaCl, 5 mM KCl, 1 mM CaCl2, 2 mM MgCl2, 5 mM glucose, 0.05% BSA, 5 mM tetramisole and 45 mM Tris-HCl (pH 7.5). The reaction was started by adding the substrate (200 uM of ATP or ADP) and stopped with 250 ul of the Malachite green reagent. Controls were run with the enzyme added after the Malachite green reagent. Where indicated, 10 mM sodium azide (NaN3) or 1 mM, 5 mM and 10 mM of BGO 136 were added directly to the assay mixture. Inorganic phosphate was estimated according to Baykov et al.^(1) and enzyme activity was either expressed as nmoles of Pi released/min/mg of protein which corresponds to mUnits^(2) or as nmoles Pi/min/10^6 cells. Where indicated, lymphoid cells were lysed by three freeze thaw cycles in saline buffer and protein was measured with the method of Bradford using bovine serum albumin as a standard (3).
# [2] = test system: human peripheral blood lymphocytes (PBL); experiment: Mitogen stimulation and proliferation assay (3H-thymidine uptake); type: cell-based; details: for lymphocytic activity including proliferation and humoral response (in words): normal T lymphocyte
# Protocol: A thymidine uptake assay was used to evaluate the effect of […] inhibitors on the proliferative activity of normal lymphocytes. Cell suspensions of fresh human peripheral blood lymphocytes (PBL) were resuspended in RPMITM 1640 medium supplemented with 10% foetal bovine serum at a concentration of 2×10^6/ml. Aliquots of […] were plated on a […] (96-well) and stimulated with 10 ug/ml of (Con-A) or 40 ug/ml of (LPSTM) at a final volume of 0.2 ml/well. ConATM and LPSTM were used to stimulate preferentially T cells and B cells, respectively. […] After an additional a 4 h incubation at 37° C., cells were collected with a cell harvester and ^3H thymidine incorporation was measured in triplicate samples by liquid scintillation counting.
# Jurkat cells = experiment: Cell growth and proliferation of Jurkat cell lines; type: cell-based, human; details: inhibitor added at day 0; cell counts on day 5
# Protocol: T cell Jurkat is an acute T cell leukemia obtained from the peripheral blood of human. It was purchassed from ATCC and was grown and maintained in RPMI™. 1640 medium containing 10% FBS, 2 mM L-glutamine adjusted to contain 1.5 g/L sodium bicarbonate, 4.5 g/L glucose, 10 mM HEPES and 1.0 mM sodium pyruvate. To evaluate the effect of the different inhibitors of NTPDases on the growth of Jurkat cells, BGO 136, erythrosin, 8 Bus ATP, AMP and β-γ-Me ATP were added in the RPMI™ 1640 medium in presence of cells at day=0. Cells counts and viability of cells were determined on day=5.
# mice [3] = experiment: Graft vs. host reaction, spleen weight after cell transplant (Bundick model); type: in vivo; details: for splenomegaly: spleen weighed 21 days after injection of parents' spleen cells; for suppression %: suppression of splenomegaly, no treatment = 100, positive = 0
# Protocol: Mice were injected their parents' spleen cells. 21 days later, their spleen was weighed. Activation of Th2 (T helper cells) cells. The treatment groups are cyclosporin, BGO, and AMP. […] The “No treatment group” is constituted of normal mice. The “positive” group is constituted of mice having undergone spleen tissue transplantation and having been injected with the carrier only (PBS™) without inhibitor. […] The spleen of all mice was then removed and weighed. The weigh of treated mice was then compared with that of the “No treatment” mice.
# mice [4] = experiment: In vivo antibody production assay (humoral response to BSA, ELISA)
# Protocol: Immunity mice were primed with antigen by an intraperitoneal injection of BSA as a T-dependent antigen. Briefly, BSA was resuspended in PBS (pH 7.2) and emulsified in the same volume of complete Freund's adjuvant (CFA). 30 ug BSA in […] PBS was given to each mouse. Four groups of ten mice were immunized. • Group 1: mice were injected i.p. with BSA alone with emulsified in (CFA) Group: Ag. • Group 2: mice were injected i.p. with BSA plus BGO 136 (400 mM) in […] PBS, emulsified in (CFA) or erythrosin B (0.25 g/Kg) • Group 3: mice were injected i.p. with BSA plus BGO 136 (800 mM) in […] PBS, emulsified in (CFA) or erythrosin B (0.5 g/Kg) • Group 4: mice were treated with BSA in presence of the inhibitor emulsified in (CFA). These mice received various i.p. doses of BGO 136 400 mM in 0.1 ml of normal PBS or erythrosin B 0.25 g/Kg, 2 doses/week are given as a maintenance dose. (group named DM=maintenance dose)
# These initial immunizations (i.p.) were followed by two subsequent immunizations with emulsions of BSA alone or in presence of BGO136 400 mM or 800 mM, in incomplete Freund's adjuvant. Five days after each immunization, blood was collected from each animal, sera was analysed by an ELISA assay.
# Flat-bottomed microtiter plate were coated with BSA (5 ug/ml) in NaHCO3/Na2CO3 50 mM (pH 9.6) at 37° C. for 2 h. Plates were washed three times with (PBS buffer, pH 7.4, 0.5 ml/L Tween-20) and then blocked with 400 ul of milk per well overnight, at 4° C. Diluted sera specimens were added (100 ul/well) and incubated for 2 h at 37° C. After thorough washing, wells were incubated with 100 ul of goat-anti-mouse IgG conjugated with peroxydase for 2 h at 37° C. followed by several washes. TMB substrate solution (100 ul/well), (42 mM TMB in DMSO, 0.1 M citric acid, Na2HPO4 0.2 M and H2O2 30%) was added. Color development was allowed to proceed for approximately 15 to 30 min, at room temperature. Reaction was terminated by adding 30 ul of 4N H2SO4. Optical density was read at 450 nm.
# NTPDase [5] = details: ATP and ADP as substrate; read-out: Ki (mixed type of inhibition); cited from earlier work
Compound,effect on NTPDase activity (in words) (NTPDase [1]),proliferation induced by ConA (in words) ([2]; ConA-stimulated PBL),lymphocytic activity including proliferation and humoral response (in words) [2],Jurkat cell proliferation (in words) (Jurkat cells),splenomegaly (mice [3]),suppression % (mice [3]),further results
CCCCSc1nc2c(N)ncnc2n1C1OC(COP(=O)(O)OP(=O)(O)OP(=O)(O)O)C(O)C1O (stereo not drawn) [8 BUS-ATP],decrease the NTPDase activity,reduced cell proliferation,decrease,marked reduction of cell proliferation,,,
"Nc1ncnc2c1ncn2[C@@H]1O[C@H](COP(=O)(O)O)[C@@H](O)[C@H]1O [AMP, adenosine 5′-monophosphate]",,,,marked reduction of cell proliferation,6.7 ± 0.82 mg/g of b. weight,8%,
"Nc1ncnc2c1ncn2[C@@H]1O[C@H](COP(=O)(O)OP(=O)(O)CP(=O)(O)O)[C@@H](O)[C@H]1O [β-γ-Me ATP, beta-gamma methylene ATP]",inhibited in a dose-dependent manner; also recorded: decrease the NTPDase activity,reduced cell proliferation,decrease,less pronounced but significant effect,,,
CCCCSc1nc2c(N)ncnc2n1[C@@H]1O[C@H](COP(=O)(O)O)C(O)[C@@H]1O (stereo partly drawn) [8 BUS-AMP],pronounced dose-dependent inhibition,,decrease,,,,effect on NTPDase activity (in words) (NTPDase [1]; listed as 8 Bus AMP): decrease the NTPDase activity
O.O=C([O-])c1ccccc1-c1c2cc(I)c(=O)c(I)c-2oc2c(I)c([O-])c(I)cc12.[Na+].[Na+] [erythrosin B],dose-dependent inhibition; also recorded: decrease the NTPDase activity,dose-dependent inhibition,decrease,marked reduction of cell proliferation,,,levels of antibodies to albumin (in words) (mice [4]; especially with multiple injections (group DM)): significant decrease
"O=S(=O)(O)c1ccc2c(O)cc(S(=O)(=O)O)cc2c1 [BGO 136, 1-hydroxynaphtalene-3,6 disulfonic acid]",decrease the NTPDase activity; also recorded: dose-dependent inhibition,inhibited in a dose-dependent manner,decrease,marked reduction of cell proliferation,4.3 ± 0.29 mg/g of b. weight,56%,"Ki (NTPDase [5]): 380 µM; inhibition of ATPase and ADPase activities (NTPDase [1]; 5 mM): 40%; inhibition of ATPase and ADPase activities (NTPDase [1]; 10 mM): ≥ 50%; proliferation induced by ConA, percent of the positive control values ([2]; ConA-stimulated PBL, 10 mM): about 10%; inhibition of LPS-induced proliferation (in words) ([2]; LPS-stimulated PBL): much less pronounced; proliferation of non-activated lymphocytes (3H-Thymidine incorporation in DNA) ([2]; unstimulated PBL): did not affect; tolerance: toxic or allergic reactions (mice [4]; during administration (two months)): No toxic or allergic reactions were observed; effect on levels of albumin antibodies (in words) (mice [4]; repeated injections (group DM) versus single dose): even more efficient; reduction of levels of albumin antibodies (mice [4]; single dose 800 mM i.p.): ≤ 50%; efficiency in preventing spleen growth following transplantation, versus cyclosporine (mice [3]): more efficient than cyclosporine; transplanted spleens versus positive control mice (in words) (mice [3]; ANOVA): significantly smaller"
